Results from PMC7044277 (Nature Communications, 2020).
Where “and” joins values, the source holds several entries; their conditions need not be identical. Identical values can stand only once.

Key:
Type in all cases: cell-based
320 non-olfactory GPCRs [1] = molecular target: T1, 320 non-olfactory GPCRs (Homo sapiens, UniProt P25100)
T1 construct: expressed in transfected cells; host or cells: HTLA cells

320 non-olfactory GPCRs [2] = molecular target: T2, 320 non-olfactory GPCRs (Homo sapiens, UniProt Q86SM8); settings: receptor MRGPRE; replicate values, Fig_4g
T2 construct: expressed in transfected cells; host or cells: HTLA cells

320 non-olfactory GPCRs [3] = molecular target: T3, 320 non-olfactory GPCRs (Homo sapiens, UniProt Q96LB2); settings: receptor MRGPRX1; replicate values, Fig_4g
T3 construct: expressed in transfected cells; host or cells: HTLA cells

320 non-olfactory GPCRs [4] = molecular target: 320 non-olfactory GPCRs (Homo sapiens, UniProt P08172)
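Throughout, for Fold of Basal: compound tested at 1 µM final concentration.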
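Throughout, for GPCRome agonism screen response: fold over basal response of each receptor without drug.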

T2 sequence (Q86SM8 whole entry): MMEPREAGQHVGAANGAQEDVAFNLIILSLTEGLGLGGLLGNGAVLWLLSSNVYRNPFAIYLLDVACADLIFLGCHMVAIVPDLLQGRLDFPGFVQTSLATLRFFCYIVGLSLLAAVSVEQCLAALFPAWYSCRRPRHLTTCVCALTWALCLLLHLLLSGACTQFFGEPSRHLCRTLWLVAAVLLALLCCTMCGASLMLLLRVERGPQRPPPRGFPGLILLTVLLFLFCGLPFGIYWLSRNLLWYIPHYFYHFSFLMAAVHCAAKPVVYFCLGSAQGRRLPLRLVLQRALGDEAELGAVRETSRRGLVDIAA
Chain of 320 non-olfactory GPCRs (Homo sapiens, UniProt P08172) (P08172 whole entry): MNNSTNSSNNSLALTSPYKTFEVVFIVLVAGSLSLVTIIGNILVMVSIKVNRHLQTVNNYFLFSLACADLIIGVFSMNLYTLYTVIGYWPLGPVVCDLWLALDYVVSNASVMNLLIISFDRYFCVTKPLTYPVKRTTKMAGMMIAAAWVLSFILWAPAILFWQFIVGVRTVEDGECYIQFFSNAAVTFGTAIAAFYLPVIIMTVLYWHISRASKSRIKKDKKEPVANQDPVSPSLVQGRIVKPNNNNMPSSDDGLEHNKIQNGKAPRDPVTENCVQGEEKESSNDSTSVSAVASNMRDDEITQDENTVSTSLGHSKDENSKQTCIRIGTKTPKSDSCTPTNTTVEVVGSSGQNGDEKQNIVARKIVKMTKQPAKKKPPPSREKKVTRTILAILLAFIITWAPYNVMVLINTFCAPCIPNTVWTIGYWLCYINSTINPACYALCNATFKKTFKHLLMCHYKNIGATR
T3 sequence (Q96LB2 whole entry): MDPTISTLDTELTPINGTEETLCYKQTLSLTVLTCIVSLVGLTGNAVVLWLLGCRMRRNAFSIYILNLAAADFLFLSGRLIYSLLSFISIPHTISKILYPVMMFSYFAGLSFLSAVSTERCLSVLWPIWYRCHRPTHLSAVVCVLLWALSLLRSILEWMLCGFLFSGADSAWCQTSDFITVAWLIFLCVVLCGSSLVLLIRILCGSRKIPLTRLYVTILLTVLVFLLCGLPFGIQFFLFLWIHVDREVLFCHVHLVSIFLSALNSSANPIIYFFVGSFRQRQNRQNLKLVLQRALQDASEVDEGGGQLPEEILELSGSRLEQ
T1 sequence (P25100 whole entry): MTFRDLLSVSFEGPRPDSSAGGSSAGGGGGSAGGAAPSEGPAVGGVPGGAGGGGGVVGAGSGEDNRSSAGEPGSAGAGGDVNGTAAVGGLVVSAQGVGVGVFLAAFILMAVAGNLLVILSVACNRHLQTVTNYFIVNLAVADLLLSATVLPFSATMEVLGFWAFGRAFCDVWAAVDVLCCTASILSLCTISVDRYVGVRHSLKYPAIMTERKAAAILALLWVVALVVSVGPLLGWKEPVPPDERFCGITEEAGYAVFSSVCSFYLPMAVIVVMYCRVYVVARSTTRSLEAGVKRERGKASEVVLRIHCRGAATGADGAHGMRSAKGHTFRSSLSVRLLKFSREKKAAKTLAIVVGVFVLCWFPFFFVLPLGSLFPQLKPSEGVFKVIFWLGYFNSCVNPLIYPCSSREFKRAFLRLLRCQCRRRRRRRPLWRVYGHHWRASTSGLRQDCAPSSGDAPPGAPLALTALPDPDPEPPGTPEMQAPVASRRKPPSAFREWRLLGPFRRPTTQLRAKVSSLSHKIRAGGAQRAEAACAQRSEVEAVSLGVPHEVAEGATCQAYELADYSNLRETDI

## CCOc1cccc2cc(C(C)NCC3(O)CCCCC3)oc12 (stereo not shown) [O4LE6]
320 non-olfactory GPCRs [1]
  Fold of Basal: 1.061 and 0.9787 and 0.8777 and 0.6895
320 non-olfactory GPCRs [2]
  GPCRome agonism screen response: 0.6882 and 1.103 and 0.7685 and 1.012
320 non-olfactory GPCRs [3]
  GPCRome agonism screen response: 1.163 and 1.233 and 1.345 and 0.8039
320 non-olfactory GPCRs [4]
  Fold of Basal: 1.524 and 1.414 and 0.8585 and 0.8596
